Experimental data published in patent US20110269811A1, “INHIBITORS OF SEMICARBAZIDE-SENSITIVE AMINE OXIDASE (SSAO) AND VAP-1 MEDIATED ADHESION USEFUL FOR TREATMENT AND PREVENTION OF DISEASES” (priority 2006, published 2011).

Tests used:
[1] = molecular target: T1, Rat SSAO (Rattus norvegicus, UniProt O08590); assay: In vitro inhibition of SSAO activity, rat lung homogenate, 14C-benzylamine; format: biochemical
T1 construct: rat lung or human umbilical cord homogenates were prepared by chopping the freshly removed tissue; from tissue; host or cells: rat lung homogenate (1000 g supernatant)
T1 sequence (O08590 1-763): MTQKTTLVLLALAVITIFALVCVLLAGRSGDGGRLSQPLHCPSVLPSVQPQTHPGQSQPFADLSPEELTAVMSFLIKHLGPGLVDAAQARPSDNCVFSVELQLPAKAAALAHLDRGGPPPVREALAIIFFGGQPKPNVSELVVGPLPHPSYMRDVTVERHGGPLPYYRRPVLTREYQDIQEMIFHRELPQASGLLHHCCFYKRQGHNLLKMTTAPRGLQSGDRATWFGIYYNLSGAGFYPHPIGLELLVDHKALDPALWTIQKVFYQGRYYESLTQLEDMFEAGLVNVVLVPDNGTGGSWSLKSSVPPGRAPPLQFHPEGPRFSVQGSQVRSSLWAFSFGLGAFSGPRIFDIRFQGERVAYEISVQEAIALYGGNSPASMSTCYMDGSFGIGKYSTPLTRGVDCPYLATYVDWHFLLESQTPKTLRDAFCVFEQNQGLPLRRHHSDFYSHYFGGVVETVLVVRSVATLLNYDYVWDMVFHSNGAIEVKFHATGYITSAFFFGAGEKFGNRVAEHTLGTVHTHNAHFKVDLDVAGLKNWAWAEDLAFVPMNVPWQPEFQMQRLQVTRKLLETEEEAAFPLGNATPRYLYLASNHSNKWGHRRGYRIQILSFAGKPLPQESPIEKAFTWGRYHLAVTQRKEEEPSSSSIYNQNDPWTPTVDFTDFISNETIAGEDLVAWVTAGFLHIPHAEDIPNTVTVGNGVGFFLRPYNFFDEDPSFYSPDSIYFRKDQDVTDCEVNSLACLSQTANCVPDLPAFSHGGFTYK
Method: SSAO activity was measured as described (Lizcano J M. Et al. (1998) Biochem J. 331:69). Briefly, rat lung or human umbilical cord homogenates were prepared by chopping the freshly removed tissue into small pieces and washing them thoroughly in PBS. The tissue was then homogenized 1:10 (w/v) for lung or 1:5 (w/v) for umbilical cord, in 10 mM potassium phosphate buffer (pH 7.8). Homogenates were then centrifuged at 1000 g at 4° C. for 10 min (lung) or 25,000 g for 30 min (umbilical cord); the supernatants were kept frozen until ready to use. Lung or umbilical cord homogenate was preincubated with clorgyline and pargyline at 1 μM to inhibit MAO-A and -B activity, respectively, and SSAO inhibitors were generally present at 1 nM-10 μM. The reaction was initiated by addition of 20 μM ^14C— benzylamine as substrate. The reaction was carried out at 37° C. in a final volume of 400 μL of 100 mM potassium phosphate buffer (pH 7.2) and stopped with 100 μl of 2M citric acid. Radioactively labeled products were extracted into toluene/ethyl acetate (1:1, v/v) containing 0.6% (w/v) 2,5-diphenyloxazole (PPO) before liquid scintillation counting.

[2] = molecular target: T2, κ (KOP) (Cavia porcellus, UniProt P41144); assay: Receptor binding screen, [^3H]U 69593, guinea-pig cerebellum; conditions: 10 uM Concentration of Compound I-1-Z; read-out: Mean Value, percent inhibition of control specific binding: κ (KOP)
T2 construct: cerebellum; from tissue; host or cells: guinea-pig cerebellum
Method: For Table 4 below, the specific ligand binding to the receptors is defined as the difference between the total binding and the nonspecific binding determined in the presence of an excess of unlabelled ligand. The results are expressed as a percent inhibition of control specific binding obtained in the presence of Compound I-1-Z. The IC50 values (concentration causing a half-maximal inhibition of control specific binding) and Hill coefficients (nH) were determined by non-linear regression analysis of the competition curves using Hill equation curve fitting. The inhibition constants (Ki) were calculated from the Cheng Prusoff equation (Ki=IC50/(1+(L/KD)), where L=concentration of radioligand in the assay, and KD=affinity of the radioligand for the receptor). In each experiment, the respective reference compound was tested concurrently with Compound I-1-Z in order to assess the assay suitability.

[3] = system: Non-Peptide Receptors, Peptide Receptors, Ion Channels; assay: Screening for receptors affected by SSAO inhibitor (specific ligand binding); conditions: 10 μM concentration; receptor families listed
Method: A screening procedure was employed to determine whether compound I-1-Z affects specific ligand binding to various receptors. Ligand binding to the following receptors was not affected by a 10 μM concentration of compound I-1-Z:
Non-Peptide Receptors: Adenosine, Adrenergic, Benzodiazepine, Cannabinoid, Dopamine, GABA, Glutamate, Histamine, Melatonin, Muscarinic, Prostanoid, Purinergic, Serotonin, Sigma;
Peptide Receptors: Angiotensin II, Bombesin, Bradykinin, Calcitonin-related peptide, Chemokine, Cholecystokinin, Cytokine, Endothein, Galanin, Growth factor, Melanocortin, Neurokinin, Neuropeptide Y, Neurotensin, Opioid, Somatostatin, VIP, Vasopressin;
Ion Channels: Calcium, Potassium, Sodium. […]
For Table 4 below, the specific ligand binding to the receptors is defined as the difference between the total binding and the nonspecific binding determined in the presence of an excess of unlabelled ligand. The results are expressed as a percent inhibition of control specific binding obtained in the presence of Compound I-1-Z. The IC50 values (concentration causing a half-maximal inhibition of control specific binding) and Hill coefficients (nH) were determined by non-linear regression analysis of the competition curves using Hill equation curve fitting. […]

[4] = molecular target: T3, human diamine oxidase (DAO) (Homo sapiens, UniProt P19801); assay: Inhibition of diamine oxidase, AMPLEX Red assay, putrescine substrate; format: biochemical; conditions: recombinant DAO expressed in CHO cells
T3 construct: made in house; host or cells: CHO cells (Flp-In, pcDNA5/FRT); serum-free conditioned medium used directly
Method: Compounds of the invention can be tested for their inhibitory activity against diamine oxidase (DAO). Recombinant DAO was expressed in CHO cells using standard molecular biology methods as described herein. […] The serum containing media was removed and the cells were switched to CHO SFM serum free media for 48 hours. […] The media was collected and used directly as a source of diamine oxidase for enzyme analysis.

[5] = molecular target: T4, B2 (h) (Homo sapiens, UniProt P30411); assay: Receptor binding screen, [^3H]bradykinin; conditions: 10 uM Concentration of Compound I-1-Z; read-out: Mean Value, percent inhibition of control specific binding: B2 (h)
T4 construct: expressed in transfected cells; host or cells: CHO cells

[6] = molecular target: T5, GAL1 (h) (Homo sapiens, UniProt P47211); assay: Receptor binding screen, [^125I]galanin; conditions: 10 uM Concentration of Compound I-1-Z; read-out: Mean Value, percent inhibition of control specific binding: GAL1 (h)
T5 construct: expressed in transfected cells; host or cells: HEK-293 cells

[7] = molecular target: T6, GAL2 (h) (Homo sapiens, UniProt O43603); assay: Receptor binding screen, [^125I]galanin; conditions: 10 uM Concentration of Compound I-1-Z; read-out: Mean Value, percent inhibition of control specific binding: GAL2 (h)
T6 construct: expressed in transfected cells; host or cells: CHO cells
T6 sequence (O43603 whole entry): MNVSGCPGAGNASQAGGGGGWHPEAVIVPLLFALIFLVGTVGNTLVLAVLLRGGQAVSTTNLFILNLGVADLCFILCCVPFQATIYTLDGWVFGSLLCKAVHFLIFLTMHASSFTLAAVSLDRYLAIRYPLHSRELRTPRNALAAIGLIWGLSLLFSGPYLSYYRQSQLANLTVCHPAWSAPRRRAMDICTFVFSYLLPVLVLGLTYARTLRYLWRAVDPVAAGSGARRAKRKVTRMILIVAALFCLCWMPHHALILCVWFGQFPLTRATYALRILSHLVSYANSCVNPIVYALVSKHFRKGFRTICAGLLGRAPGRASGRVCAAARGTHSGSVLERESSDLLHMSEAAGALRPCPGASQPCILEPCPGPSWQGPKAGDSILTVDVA

T2 sequence (P41144 whole entry): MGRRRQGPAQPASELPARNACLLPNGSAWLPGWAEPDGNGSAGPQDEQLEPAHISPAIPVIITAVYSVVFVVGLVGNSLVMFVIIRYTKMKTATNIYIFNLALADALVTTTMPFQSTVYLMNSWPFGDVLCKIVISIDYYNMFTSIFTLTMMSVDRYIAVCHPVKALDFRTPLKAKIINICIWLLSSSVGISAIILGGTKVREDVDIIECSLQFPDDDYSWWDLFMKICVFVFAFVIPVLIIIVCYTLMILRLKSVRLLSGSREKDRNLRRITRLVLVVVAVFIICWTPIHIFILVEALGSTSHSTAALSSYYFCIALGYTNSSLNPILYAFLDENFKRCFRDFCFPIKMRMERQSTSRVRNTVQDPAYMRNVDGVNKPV
T4 sequence (P30411 whole entry): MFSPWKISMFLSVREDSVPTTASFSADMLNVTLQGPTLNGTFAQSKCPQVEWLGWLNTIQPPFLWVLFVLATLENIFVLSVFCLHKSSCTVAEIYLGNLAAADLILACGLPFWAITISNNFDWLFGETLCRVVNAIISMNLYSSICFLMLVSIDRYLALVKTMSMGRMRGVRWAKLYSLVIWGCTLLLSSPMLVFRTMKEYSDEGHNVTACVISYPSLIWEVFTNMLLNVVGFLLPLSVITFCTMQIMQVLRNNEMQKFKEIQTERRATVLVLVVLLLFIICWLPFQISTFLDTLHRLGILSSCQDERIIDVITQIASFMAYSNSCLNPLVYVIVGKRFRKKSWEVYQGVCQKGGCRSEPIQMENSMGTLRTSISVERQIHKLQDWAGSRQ
T5 sequence (P47211 whole entry): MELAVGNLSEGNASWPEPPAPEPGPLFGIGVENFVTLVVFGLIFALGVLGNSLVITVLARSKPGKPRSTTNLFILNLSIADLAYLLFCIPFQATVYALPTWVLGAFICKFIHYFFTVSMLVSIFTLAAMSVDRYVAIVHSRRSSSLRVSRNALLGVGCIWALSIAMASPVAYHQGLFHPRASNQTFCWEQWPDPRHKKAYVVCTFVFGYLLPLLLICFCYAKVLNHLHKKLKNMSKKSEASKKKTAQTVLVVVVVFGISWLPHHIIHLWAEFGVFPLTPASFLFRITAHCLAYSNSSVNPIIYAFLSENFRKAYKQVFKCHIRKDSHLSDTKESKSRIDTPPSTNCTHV
T3 sequence (P19801 20-751): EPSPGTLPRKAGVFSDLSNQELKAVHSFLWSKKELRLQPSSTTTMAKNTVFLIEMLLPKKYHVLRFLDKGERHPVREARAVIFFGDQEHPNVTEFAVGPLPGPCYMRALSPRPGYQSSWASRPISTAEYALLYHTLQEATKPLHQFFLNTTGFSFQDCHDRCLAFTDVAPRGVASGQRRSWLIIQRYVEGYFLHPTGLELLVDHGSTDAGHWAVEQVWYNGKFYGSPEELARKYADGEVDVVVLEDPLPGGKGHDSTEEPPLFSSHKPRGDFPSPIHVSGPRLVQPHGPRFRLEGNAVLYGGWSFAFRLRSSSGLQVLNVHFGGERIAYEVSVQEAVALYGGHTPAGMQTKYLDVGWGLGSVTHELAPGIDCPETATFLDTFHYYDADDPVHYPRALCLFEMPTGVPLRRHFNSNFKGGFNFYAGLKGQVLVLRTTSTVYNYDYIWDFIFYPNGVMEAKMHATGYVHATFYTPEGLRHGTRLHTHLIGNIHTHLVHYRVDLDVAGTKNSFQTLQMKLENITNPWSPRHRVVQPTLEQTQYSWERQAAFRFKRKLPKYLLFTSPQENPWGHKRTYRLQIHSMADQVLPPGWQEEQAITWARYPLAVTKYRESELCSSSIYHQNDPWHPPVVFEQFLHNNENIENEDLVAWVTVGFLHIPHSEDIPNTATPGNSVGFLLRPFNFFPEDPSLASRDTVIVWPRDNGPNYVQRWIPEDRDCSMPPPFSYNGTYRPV

CCOc1ccc(C/C(=C\F)CN)cc1.Cl [Compound I-2-E, (E)-3-Fluoro-2-(4-ethoxybenzyl)-allylamine hydrochloride]
IC50 [1]: 8 nM

NC/C(F)=C\Cc1cc(F)cc(C(F)(F)F)c1 [II-1-E, (E)-2-Fluoro-4-(3-fluoro-5-trifluoromethylphenyl)-but-2-enylamine]
IC50 [1]: 38 nM

CCOc1ccc(C/C(=C/F)CN)cc1.Cl [Compound I-2-Z, (Z)-3-Fluoro-2-(4-ethoxybenzyl)-allylamine hydrochloride]
IC50 [1]: 5 nM

COc1ccc(C/C(=C/F)CN)cc1.Cl [Compound I-1-Z, (Z)-3-Fluoro-2-(4-methoxybenzyl)-allylamine hydrochloride]
inhibition at 10 µM [2]: -18% | IC50 [1]: 13 nM | Ligand binding to the listed receptors [3]: not affected | IC50 [4]: 92000 nM | inhibition at 10 µM [5]: 1% | inhibition at 10 µM [6]: 0% | inhibition at 10 µM [7]: 12%
